“Also recorded” adds a separate entry of the source.
Legend:
[1] = system: F/V cells (angiogenic endothelial cells of foetal bovine aorta); assay: Proliferation test on F/V cells; assay type: cell-based; conditions: for sensitivity of F/V cells compared with F/0 cells to anti-angiogenic agent: F/V versus F/0 cells, seeded at low density (5000), FIG. 4
Procedure: (§1) FIG. 5A relates in particular to the action of the type 3 antibodies on the proliferation of the F/V cells of angiogenic phenotype. FIG. 5B relates to the action of the type 3 antibodies on the proliferation of the F/O non-angiogenic cells. The test carried out is a proliferation test as described in the examples. The cells are cultured in DMEM supplemented with 5% newborn calf serum to which is added either no angiogenic factor (condition 0), or 2 ng/ml VEGF (condition VEGF), or 2 ng/ml FGF-2 (condition FGF-2). The antibody is added at the same time as the angiogenic factors, at variable concentrations (0, 1, 3 or 7 μg/ml).
(§2) The test carried out is a proliferation test as described in the examples. The cells are cultured in DMEM supplemented with 5% newborn calf serum. The antibody is added at the same time as the angiogenic factors, at variable concentrations (0, 50 or 100 μg/ml).
(§3) 12-well plates are seeded at a low density (5000 to 10,000 cells/well), in DMEM medium with 8% serum. After 24 hours, the proliferation of the cells is stimulated by the addition of a range of growth factor, anti-angiogenic medicaments (methoxyestradiol, fumagillin, SU5416 targeted on VEGF-R2—Plouët et al., 2001) or antibodies of the present invention. The cells are restimulated after 48 hours and then after a total of five days in culture the cells are trypsinated and counted with a Coulter counter.
The F/0 and F/V cells are seeded at a low density (5000) as indicated and three drugs are inoculated separately, 2 of which are of unknown mechanism (Methoxyestradiol-ME-2 and fumagillin—FUMA) and 1 interfering with VEGF-R2 (SU 5416) inhibiting kinase activity.

[2] = system: F/0 cells (non-angiogenic endothelial cells of foetal bovine aorta); assay: Proliferation test on F/0 cells; assay type: cell-based
Procedure: as §1, §2
as §3, with “counter. […]” for “counter.”

Molecule | sensitivity of F/V cells compared with F/0 cells to anti-angiogenic agent [1] | ED 50 of mitogenic action ([1]; F/V cells) | proliferation under the action of VEGF (in words) [2]
CO[C@@H]1[C@H](OC(=O)/C=C/C=C/C=C/C=C/C(=O)O)CC[C@]2(CO2)[C@H]1[C@@]1(C)O[C@@H]1CC=C(C)C [fumagillin] | identically sensitive; also recorded: equally sensitive |  | 
COc1cc2c(cc1O)CC[C@@H]1[C@@H]2CC[C@]2(C)[C@@H](O)CC[C@@H]12 [methoxyestradiol] | identically sensitive; also recorded: equally sensitive |  | 
VEGF |  | 0.3 ng/mL | do not proliferate
Cc1cc(C)c(/C=C2\C(=O)Nc3ccccc32)[nH]1 [SU 5416] | much more sensitive |  | 
